US20060154903A1, “Betulinol derivatives as anti-cancer agents” (priority 2004, published 2006)
Where two headings read alike, the source gives them in different places.

Assays:
[1] = Solubilization in PBS containing human γ-globulin, human albumin and ethanol; conditions: for Observation: 1 × 10^−3 mol/L
Excerpt: Human γ-Globulin and human albumin are two major biocompatible components in human serum.

LNCaP xenografts = format: in vivo, athymic mice
Experimental: All the animal studies were performed according to the guidelines and approval of the Institutional Animal Care and Use Committee and Research Animal Resource Center of Weill Medical College of Cornell University, New York. Twelve mice of 13 weeks of age were purchased from The National Cancer Institute (NCI) and were housed in a pathogen-free environment under controlled conditions of light and humidity and with free access to food and water. LNCaP cells were grown in RPMI-1640 with 10% FBS until 80-90% confluent. Cells were scraped into PBS and collected by centrifugation. The LNCaP cell pellets were suspended in Matrigel (Ref) at 2.5×10^7 cells/ml. Mice were injected subcutaneously (“s.c.”) with 200 μl (5×10^6 cells) of the cell suspension at one site on the flank. Visible tumor grew after 7-8 days following implantation and mice were divided into three groups of four mice each.
Mice received s.c. injection daily for ten days. […] Tumors were measured daily with calipers, and tumor volumes were calculated by the formula: π/6(1×w×h). Animals were also weighed daily and monitored for general health status and vital signs of possible toxicity due to treatment. At the end of the treatment period, the animals were sacrificed and tumors were excised, weighed and prepared for immunohistochemical and histological studies. […]

[2] = Solubility in DMSO diluted with culture medium (GC); conditions: for State of solution: 0.5 mg/mL (1 × 10^−3 mol/L), culture medium
Experimental: The residue was dissolved in chloroform analyzed on GC.
Ethyl ether was then evaporated. […] Concentration of drug in the above solutions was analyzed by GC and determined from the standard solubility curve.

[3] = system: human prostate cancer DU-145 cell line; experiment: MTT cytotoxicity assay, DU-145; format: cell-based; conditions: for Percent Killed: Prostate (1); for Growth Inhibition %: 1 × 10^−5
Experimental: (§1) The human prostate cancer LNCaP, PC-3, and DU-145 cell lines, as well as human fibroblast cell line, were obtained from the American Type Culture Collection (“ATCC”) and maintained in RPMI-1640, F-12k, and MEM mediums, respectively, supplemented with 10% FBS. Cell lines were maintained at 37° C. under a humidified atmosphere and 5% CO2 for testing of the cytotoxicity of betulinol derivatives. The cytotoxicity assay was performed using MTT assay according to the instructions of ATCC protocol. Cells 1×10^5 in 0.1 ml/well were plated in 96-well culture plates (Costar) and incubated with a different dilution of betulinol derivatives for 24, 48, and 72 hours. Ten μl of 3-[4,5-dimethylthiazol-2-yl]-2,5 diphenyl tetrazolium bromide was added into each well at the end of each incubation period. The reaction product, formazan, was dissolved in the detergent, and the absorbance was read at 540 nm (Ref).

PC-3 = experiment: Anchorage-independence growth assay in soft agar, PC-3; format: cell-based; conditions: Homo sapiens, 336 h, 1 × 10^−5 M, 14 days, read-out: Inhibition % on Anchorage-independent Growth
Experimental: (§2) Anchorage-independence growth assay was performed to determine the ability of cancer cells to form colonies in soft agar. 1.0×10^4 cancer cells were suspended in 2 ml of DMEM medium containing 0.33% agar in the presence or absence of betulinol derivatives. The compounds were overlaid on a 2 ml matrix made up of 0.6% agar. The cultures were incubated at 37° C. in a humidified environment under 5% CO2 for 14 days without medium change. The cultures were fixed in Comoy's fixative (acetic acid/100% ethanol 1:3 v/v) and the numbers of anchorage-independent, tridimentional colonies (≧40 μm diameter) formed were counted under 10× magnification (Katdare et al., Cancer Lett. 111:141-47 (1997), which is hereby incorporated by reference in its entirety).

LNCaP = experiment: Anchorage-independence growth assay in soft agar, LNCaP; format: cell-based; conditions: Homo sapiens, 336 h, 1 × 10^−5 M, 14 days, read-out: Inhibition % on Anchorage-independent Growth
Experimental: as §2

DU-145 = experiment: Anchorage-independence growth assay in soft agar, DU-145; format: cell-based; conditions: Homo sapiens, 336 h, 1 × 10^−5 M, 14 days, read-out: Inhibition % on Anchorage-independent Growth
Experimental: as §2

Bladder cancer cells = conditions: 1 × 10^−4 M; Bladder (1), cell line not given
[4] = system: human prostate cancer LNCaP cell line; experiment: MTT cytotoxicity assay, LNCaP; format: cell-based; conditions: for Percent Killed / inhibition at 100 µM / inhibition at 10 µM / inhibition at 1 µM / Growth Inhibition %: LNCaP; for Percent Killed: Prostate (1); for inhibition at 100 µM / inhibition at 10 µM / inhibition at 1 µM: Homo sapiens, read-out: Growth Inhibition %; for inhibition at 1 µM: 1 × 10^−6 M; for Growth Inhibition %: 1 × 10^−5 (Table 12)
Experimental: as §1
However, these compounds were not tested on prostate cancer LNCaP cell line by NCI. […] The anti-tumor activity of the compounds was determined at three doses and the total growth inhibition kill effect as pertinent of the control at 24, 48, and 72 hours as presented in Table 11.

184B5/HER = experiment: In vitro cytotoxicity, Breast (1), 184B5/HER; format: cell-based; conditions: 1 × 10^−4 M
[5] = system: human prostate cancer PC-3 cell line; experiment: MTT cytotoxicity assay, PC-3; format: cell-based; conditions: for Percent Killed: Prostate (1); for Growth Inhibition %: 1 × 10^−5
Experimental: as §1

[6] = system: human fibroblast cell line; format: cell-based; conditions: Fibroblasts; for Percent Killed: Prostate (1); for Growth Inhibition %: 1 × 10^−5
Experimental: as §1

C=C(C)C1CCC2(C(=O)O)CC[C@]3(C)[C@H](CC[C@@H]4[C@@]5(C)CCC(=O)C(C)(C)[C@@H]5CC[C@]43C)C12 (some centres unmarked) [Compound 4, Betulonic Acid]
Observation ([1]; ethanol 220 μL, γ-globulin PBS 1.48 mL, albumin PBS 0.49 mL): Cloudy
Observation ([1]; ethanol 280 μL, γ-globulin PBS 0 mL, albumin PBS 2.50 mL): Complete
Observation ([1]; ethanol 280 μL, γ-globulin PBS 2.50 mL, albumin PBS 0 mL): Suspension
Observation ([1]; ethanol 308 μL, γ-globulin PBS 0.69 mL, albumin PBS 2.07 mL): Almost Clear
Observation ([1]; ethanol 330 μL, γ-globulin PBS 1.48 mL, albumin PBS 1.48 mL): Little Cloudy
Observation ([1]; ethanol 352 μL, γ-globulin PBS 0.32 mL, albumin PBS 2.85 mL): Clear
concentration completely dissolved ([1]; PBS containing 4% human albumin, final concentration of 10% ethanol): 1×10^−3 mol per liter
concentration completely dissolved ([1]; human albumin PBS solution with 10% ethanol): 0.001 mol/L
health status and vital signs of the mice during treatment (LNCaP xenografts; mouse, in vivo): no adverse effects on vital signs
increase of tumor volume on day 10 compared to day 1 (LNCaP xenografts; s.c. daily for ten days, 20 mg/kg, LNCaP xenografts in athymic mice): 20.3%
State of solution ([2]; 3% DMSO in total Vol.): Suspension
State of solution ([2]; 9% DMSO in total Vol.): Suspension
State of solution ([2]; 14% DMSO in total Vol.): Cloudy
State of solution ([2]; 20% DMSO in total Vol.): clear solution
State of solution ([2]; 20% DMSO in total Vol., listed as BA): Clear
amount dissolved out of 3 mg ([2]; 1% DMSO in culture medium containing 10% FBS, nominal 1×10^−3 mol/L): 0.4 mg
Percent Killed ([3]; 1 × 10^−4 M): 54%
Percent Killed ([3]; 1 × 10^−5 M): 51%
Growth Inhibition % ([3]; 24 hours): 33%
Growth Inhibition % ([3]; 48 hours): 51%
inhibition at 10 µM (PC-3): 26.1%
inhibition at 10 µM (LNCaP): 0%
inhibition at 10 µM (DU-145): 12.5%
Percent Killed (Bladder cancer cells): 37%
Percent Killed ([4]; 1 × 10^−4 M): 81%
Percent Killed ([4]; 1 × 10^−5 M): 75%
inhibition at 100 µM ([4]; 24 h, 24 hours, 1 × 10^−4 M): 70.4 ± 19.1%
inhibition at 10 µM ([4]; 24 h, 24 hours, 1 × 10^−5 M): 24.2 ± 10.8%
inhibition at 1 µM ([4]; 24 h, 24 hours): 9.2 ± 6.1%
inhibition at 100 µM ([4]; 48 h, 48 hours, 1 × 10^−4 M): 81 ± 12.6%
inhibition at 10 µM ([4]; 48 h, 48 hours, 1 × 10^−5 M): 69.5 ± 20.2%
inhibition at 1 µM ([4]; 48 h, 48 hours): 27.8 ± 11.4%
inhibition at 100 µM ([4]; 72 h, 72 hours, 1 × 10^−4 M): 80.8 ± 15.8%
inhibition at 10 µM ([4]; 72 h, 72 hours, 1 × 10^−5 M): 88.4 ± 7.96%
inhibition at 1 µM ([4]; 72 h, 72 hours): 45 ± 12.3%
Growth Inhibition % ([4]; 24 hours): 38 ± 8%
Growth Inhibition % ([4]; 48 hours): 75 ± 9%
kill effects on LNCaP cell growth compared to the other compounds ([4]; MTT assay, compounds 1-8): highest kill effects
Percent Killed (184B5/HER): Toxic
Percent Killed ([5]; 1 × 10^−4 M): 54%
Percent Killed ([5]; 1 × 10^−5 M): 41%
Growth Inhibition % ([5]; 24 hours): 9.7%
Growth Inhibition % ([5]; 48 hours): 41.1%
Percent Killed ([6]; 1 × 10^−4 M): No effect
Percent Killed ([6]; 1 × 10^−5 M): No effect
Growth Inhibition % ([6]; 24 hours): 0%
Growth Inhibition % ([6]; 48 hours): 0%
